Measured values: patent publication US11739098B2 (BRISTOL-MYERS SQUIBB COMPANY, priority 2017, dated 2023)

Legend:
Assay type in all cases: cell-based
human TLR7 = biological target: T1, human TLR7 (Homo sapiens, UniProt Q9NYK1); assay: TLR7 inhibition reporter assay (HEK-Blue cells, SEAP reporter, gardiquimod stimulation); details: HEK-Blue cells overexpressing human TLR7, SEAP reporter, gardiquimod 7.5 μM
T1 construct: host or cells: HEK-Blue cells (HEK293-derived reporter line)
T1 sequence (Q9NYK1 27-1049): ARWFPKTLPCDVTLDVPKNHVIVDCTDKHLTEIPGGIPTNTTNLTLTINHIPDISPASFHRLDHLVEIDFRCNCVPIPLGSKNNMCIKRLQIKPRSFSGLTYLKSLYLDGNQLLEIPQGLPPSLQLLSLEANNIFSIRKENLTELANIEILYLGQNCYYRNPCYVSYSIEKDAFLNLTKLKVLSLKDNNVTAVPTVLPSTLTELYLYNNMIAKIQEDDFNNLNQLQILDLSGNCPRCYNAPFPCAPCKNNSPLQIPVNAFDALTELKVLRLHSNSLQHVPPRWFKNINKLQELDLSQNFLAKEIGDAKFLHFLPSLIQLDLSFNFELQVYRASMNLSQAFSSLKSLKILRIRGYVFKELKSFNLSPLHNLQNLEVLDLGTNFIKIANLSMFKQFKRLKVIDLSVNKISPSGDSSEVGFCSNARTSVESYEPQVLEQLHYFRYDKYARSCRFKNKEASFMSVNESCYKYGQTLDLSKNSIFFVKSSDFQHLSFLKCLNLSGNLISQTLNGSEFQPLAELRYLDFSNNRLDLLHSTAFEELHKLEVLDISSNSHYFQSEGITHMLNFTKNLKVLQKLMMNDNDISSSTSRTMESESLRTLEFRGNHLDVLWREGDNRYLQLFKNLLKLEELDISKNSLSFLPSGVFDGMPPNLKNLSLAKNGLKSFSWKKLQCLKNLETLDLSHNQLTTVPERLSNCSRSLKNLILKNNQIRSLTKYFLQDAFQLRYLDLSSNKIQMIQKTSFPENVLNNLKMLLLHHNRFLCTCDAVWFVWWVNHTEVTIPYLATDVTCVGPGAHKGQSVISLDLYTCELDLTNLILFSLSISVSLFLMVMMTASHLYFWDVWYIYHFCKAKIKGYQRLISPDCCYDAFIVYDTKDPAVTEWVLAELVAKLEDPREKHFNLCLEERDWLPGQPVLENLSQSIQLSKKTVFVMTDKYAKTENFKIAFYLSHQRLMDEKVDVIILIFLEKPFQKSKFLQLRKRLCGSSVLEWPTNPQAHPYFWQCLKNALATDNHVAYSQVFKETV
How it was run: (§1)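 Cells seeded per well (15000 TLR7, 20,000 TLR8, 25,000 TLR9); compound added over 0.05 nM–50 μM for 30 min at room temperature; agonist added (TLR7 gardiquimod 7.5 μM, TLR8 R848 15.9 μM, TLR9 ODN2006 5 nM); 22 h at 37 °C; SEAP measured; percent inhibition calculated.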

human TLR9 = biological target: T2, human TLR9 (Homo sapiens, UniProt Q9NR96); assay: TLR9 inhibition reporter assay (HEK-Blue cells, SEAP reporter, ODN2006 stimulation); details: HEK-Blue cells overexpressing human TLR9, SEAP reporter, ODN2006 5 nM
T2 construct: host or cells: HEK-Blue cells (HEK293-derived reporter line)
T2 sequence (Q9NR96 26-1032): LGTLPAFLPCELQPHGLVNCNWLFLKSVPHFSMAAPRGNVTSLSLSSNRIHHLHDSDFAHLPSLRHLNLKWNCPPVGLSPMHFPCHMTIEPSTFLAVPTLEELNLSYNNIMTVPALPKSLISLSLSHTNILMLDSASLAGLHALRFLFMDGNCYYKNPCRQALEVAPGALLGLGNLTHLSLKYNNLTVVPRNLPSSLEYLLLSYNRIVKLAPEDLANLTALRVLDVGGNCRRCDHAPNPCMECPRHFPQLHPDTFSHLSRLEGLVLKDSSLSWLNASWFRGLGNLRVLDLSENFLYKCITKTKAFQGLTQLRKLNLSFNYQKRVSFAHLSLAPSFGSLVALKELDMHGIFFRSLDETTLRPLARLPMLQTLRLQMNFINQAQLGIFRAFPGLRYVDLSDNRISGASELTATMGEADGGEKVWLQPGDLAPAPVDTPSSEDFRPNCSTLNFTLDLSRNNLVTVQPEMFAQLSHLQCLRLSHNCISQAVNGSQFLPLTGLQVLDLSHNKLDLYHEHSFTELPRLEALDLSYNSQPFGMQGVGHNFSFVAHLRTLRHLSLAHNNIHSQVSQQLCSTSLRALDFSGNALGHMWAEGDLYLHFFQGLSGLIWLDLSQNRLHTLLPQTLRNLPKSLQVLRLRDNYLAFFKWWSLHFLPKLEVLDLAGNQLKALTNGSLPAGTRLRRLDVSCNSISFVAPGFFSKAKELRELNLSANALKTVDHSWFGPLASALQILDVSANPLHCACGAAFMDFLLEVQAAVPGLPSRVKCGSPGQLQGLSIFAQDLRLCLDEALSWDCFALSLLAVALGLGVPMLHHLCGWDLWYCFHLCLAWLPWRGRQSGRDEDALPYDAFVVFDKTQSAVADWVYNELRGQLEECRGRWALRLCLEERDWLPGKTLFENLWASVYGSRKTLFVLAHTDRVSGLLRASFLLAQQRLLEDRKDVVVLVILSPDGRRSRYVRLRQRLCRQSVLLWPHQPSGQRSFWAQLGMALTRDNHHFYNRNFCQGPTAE
How it was run: as §1

human TLR8 = biological target: T3, human TLR8 (Homo sapiens, UniProt Q9NR97); assay: TLR8 inhibition reporter assay (HEK-Blue cells, SEAP reporter, R848 stimulation); details: HEK-Blue cells overexpressing human TLR8, SEAP reporter, R848 15.9 μM
T3 construct: host or cells: HEK-Blue cells (HEK293-derived reporter line)
T3 sequence (Q9NR97 27-1041): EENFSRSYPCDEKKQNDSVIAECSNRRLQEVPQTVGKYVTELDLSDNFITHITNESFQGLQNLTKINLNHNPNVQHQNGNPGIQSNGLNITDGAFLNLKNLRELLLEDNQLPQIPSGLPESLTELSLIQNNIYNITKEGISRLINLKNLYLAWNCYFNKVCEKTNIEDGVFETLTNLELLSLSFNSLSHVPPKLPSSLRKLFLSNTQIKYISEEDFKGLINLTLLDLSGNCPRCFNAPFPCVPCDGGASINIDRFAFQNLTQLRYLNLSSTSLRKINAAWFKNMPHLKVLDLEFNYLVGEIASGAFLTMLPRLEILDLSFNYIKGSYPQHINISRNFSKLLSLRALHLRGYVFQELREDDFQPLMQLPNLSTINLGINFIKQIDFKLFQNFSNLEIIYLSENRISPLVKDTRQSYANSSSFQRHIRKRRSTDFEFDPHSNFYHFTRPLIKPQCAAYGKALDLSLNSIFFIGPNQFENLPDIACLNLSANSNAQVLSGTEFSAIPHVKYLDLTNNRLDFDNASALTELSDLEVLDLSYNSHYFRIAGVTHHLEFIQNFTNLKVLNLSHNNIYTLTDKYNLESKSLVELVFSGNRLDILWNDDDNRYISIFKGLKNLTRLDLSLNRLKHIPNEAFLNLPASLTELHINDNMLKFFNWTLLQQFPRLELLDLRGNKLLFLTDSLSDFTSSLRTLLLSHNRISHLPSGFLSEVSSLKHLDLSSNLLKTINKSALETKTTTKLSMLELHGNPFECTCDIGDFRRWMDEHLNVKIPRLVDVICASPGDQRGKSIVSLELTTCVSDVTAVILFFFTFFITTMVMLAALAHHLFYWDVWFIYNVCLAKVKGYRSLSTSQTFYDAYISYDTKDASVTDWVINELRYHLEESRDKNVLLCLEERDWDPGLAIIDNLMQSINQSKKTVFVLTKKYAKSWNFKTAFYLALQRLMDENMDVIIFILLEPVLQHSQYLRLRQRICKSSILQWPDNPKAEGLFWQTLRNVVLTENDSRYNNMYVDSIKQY
How it was run: as §1

Row | IC50 (human TLR7) [nM] | IC50 (human TLR9) [nM] | IC50 (human TLR8) [nM] | SMILES
1 | 100 to 1000 | 100 to 1000 | 100 to 1000 | CC(C)c1c(-c2ncnn3cccc23)[nH]c2ccc(C3CCNCC3)cc12 [Example 191, 4-(3-isopropyl-5-(piperidin-4-yl)-1H-indol-2-yl)pyrrolo[2,1-f][1,2,4]triazine]
2 | < 100 | 1000 to 50000 | 100 to 1000 | Cc1cc2nccn2cc1-c1[nH]c2ccc(C3CCN(CC(=O)N(C)C)CC3)cc2c1C(C)C [Example 431, 2-(4-(3-isopropyl-2-(7-methylimidazo[1,2-a]pyridin-6-yl)-1H-indol-5-yl)piperidin-1-yl)-N,N-dimethylacetamide]
3 | < 100 | 1000 to 50000 | < 100 | COCCN1CCC(c2ccc3[nH]c(-c4cc(OC)n5ncnc5c4)c(C(C)C)c3c2)CC1 [Example 780, 7-(3-isopropyl-5-(1-(2-methoxyethyl)piperidin-4-yl)-1H-indol-2-yl)-5-methoxy-[1,2,4]triazolo[1,5-a]pyridine]
4 | < 100 | 100 to 1000 | < 100 | CNCCN1CCC(c2ccc3[nH]c(-c4ccnc5[nH]ncc45)c(C(C)C)c3c2)C(F)C1 (stereo not drawn) [Example 675, 2-(3-fluoro-4-(3-isopropyl-2-(1H-pyrazolo[3,4-b]pyridin-4-yl)-1H-indol-5-yl)piperidin-1-yl)-N-methylethan-1-amine]
5 | < 100 | 1000 to 50000 | < 100 | Cc1cc(-c2[nH]c3ccc(C4CCN(CCCC(F)(F)F)CC4)cc3c2C(C)C)cn2nnnc12 [Example 963, 6-(3-isopropyl-5-(1-(4,4,4-trifluorobutyl)piperidin-4-yl)-1H-indol-2-yl)-8-methyltetrazolo[1,5-a]pyridine]
6 | 100 to 1000 | 1000 to 50000 | 100 to 1000 | CC(C)c1c(-c2ccn3nccc3n2)[nH]c2ccc(C3CCNCC3)cc12 [Example 193, 5-(3-isopropyl-5-(piperidin-4-yl)-1H-indol-2-yl)pyrazolo[1,5-a]pyrimidine]
7 | 100 to 1000 | 1000 to 50000 | 1000 to 50000 | CNC(=O)CN1CCC(c2ccc3[nH]c(-c4cc(OC)n5cc(C)nc5c4)c(C(C)C)c3c2)CC1 [Example 335, 2-(4-(3-isopropyl-2-(5-methoxy-2-methylimidazo[1,2-a]pyridin-7-yl)-1H-indol-5-yl)piperidin-1-yl)-N-methylacetamide]
8 | 100 to 1000 | 1000 to 50000 | 100 to 1000 | CC(C)c1c(-c2ccc3cnnn3c2)[nH]c2ccc(C3CCN(C4COC4)CC3)cc12 [Example 734, 6-(3-isopropyl-5-(1-(oxetan-3-yl)piperidin-4-yl)-1H-indol-2-yl)-[1,2,3]triazolo[1,5-a]pyridine]
9 | 100 to 1000 | 1000 to 50000 | < 100 | CC(C)c1c(-c2ccnc3cnn(C)c23)[nH]c2ccc(C3CCNCC3)cc12 [Example 43, 7-(3-isopropyl-5-(piperidin-4-yl)-1H-indol-2-yl)-1-methyl-1H-pyrazolo[4,3-b]pyridine]
10 | < 100 | 100 to 1000 | < 100 | CCc1c(-c2ccnc3[nH]ncc23)[nH]c2ccc(C3CCN(CCNC)CC3)cc12 [Example 654, 2-(4-(3-ethyl-2-(1H-pyrazolo[3,4-b]pyridin-4-yl)-1H-indol-5-yl)piperidin-1-yl)-N-methylethan-1-amine]
11 | < 100 | 100 to 1000 | 100 to 1000 | Cc1c(-c2ccnc3[nH]cnc23)[nH]c2ccc(C3CCNCC3)cc12 [Example 60, 7-(3-methyl-5-(piperidin-4-yl)-1H-indol-2-yl)-3H-imidazo[4,5-b]pyridine]
12 | < 100 | 100 to 1000 | < 100 | COC(=O)C1CC(N2CCC(c3ccc4[nH]c(-c5ccnc6[nH]ncc56)c(C(C)C)c4c3)CC2)CCN1 (stereo not drawn) [Example 831, methyl 4-(3-isopropyl-2-(1H-pyrazolo[3,4-b]pyridin-4-yl)-1H-indol-5-yl)-[1,4′-bipiperidine]-2′-carboxylate]
13 | 100 to 1000 | 1000 to 50000 | 100 to 1000 | CC(C)c1c(-c2ccc3cncn3c2)[nH]c2ccc(C3CCNCC3)cc12 [Example 183, 6-(3-isopropyl-5-(piperidin-4-yl)-1H-indol-2-yl)imidazo[1,5-a]pyridine]
14 | < 100 | 1000 to 50000 | < 100 | Cc1cc(-c2[nH]c3ccc(C4CCN(C5COC5)CC4)cc3c2C(C)C)cc2ccnn12 [Example 720, 5-(3-isopropyl-5-(1-(oxetan-3-yl)piperidin-4-yl)-1H-indol-2-yl)-7-methylpyrazolo[1,5-a]pyridine]
15 | 100 to 1000 | 100 to 1000 | < 100 | CCc1c(-c2ccnc3[nH]ncc23)[nH]c2ccc(C3CCN(CC4(N)CC4)CC3)cc12 [Example 657, 1-((4-(3-ethyl-2-(1H-pyrazolo[3,4-b]pyridin-4-yl)-1H-indol-5-yl)piperidin-1-yl)methyl)cyclopropan-1-amine]
